Measurements from PubChem BioAssay (NCI).
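Exposure lasted 48 hours, with cells grown in 96-well plates and compounds tested at five concentrations. GI50: concentration for 50% inhibition of growth. TGI marks complete inhibition of growth.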 Where a SMILES comes first, the peptide text is derived from it. [ ]: non-standard residue; d: D form. NMeY = CN[C@@H](Cc1ccc(O)cc1)C(=O)O; dNMeF = CN[C@H](Cc1ccccc1)C(=O)O; Sar = CNCC(=O)O

Assays:
Test in all cases: inhibition of tumour cell growth, NCI panel, 48 h
IGROV1 ovarian = system: IGROV1 ovarian
EKVX NSCLC = system: EKVX NSCLC
UO-31 renal = system: UO-31 renal
NCI-H522 lung = system: NCI-H522 lung
SK-OV-3 ovarian = system: SK-OV-3 ovarian
786-0 renal = system: 786-0 renal
SF-268 CNS = system: SF-268 CNS
UACC-257 melanoma = system: UACC-257 melanoma
CCRF-CEM leukemia = system: CCRF-CEM leukemia
TK-10 renal = system: TK-10 renal

Row | SMILES | GI50 (IGROV1 ovarian) [µM] | TGI (IGROV1 ovarian) [µM] | GI50 (EKVX NSCLC) [µM] | TGI (EKVX NSCLC) [µM] | GI50 (UO-31 renal) [µM] | TGI (UO-31 renal) [µM] | GI50 (NCI-H522 lung) [µM] | TGI (NCI-H522 lung) [µM] | GI50 (SK-OV-3 ovarian) [µM] | TGI (SK-OV-3 ovarian) [µM] | GI50 (786-0 renal) [µM] | TGI (786-0 renal) [µM] | GI50 (SF-268 CNS) [µM] | TGI (SF-268 CNS) [µM] | GI50 (UACC-257 melanoma) [µM] | TGI (UACC-257 melanoma) [µM] | GI50 (CCRF-CEM leukemia) [µM] | TGI (CCRF-CEM leukemia) [µM] | GI50 (TK-10 renal) [µM] | TGI (TK-10 renal) [µM]
1 | CC[C@H](C)[C@@H]1NC(=O)[C@H](Cc2ccc(O)cc2)N(C)C(=O)[C@H](Cc2ccccc2)NC(=O)CN(C)C(=O)[C@@H]2CCCN2C(=O)[C@@H](Cc2ccccc2)N(C)C(=O)[C@H](CC(C)C)NC1=O (cyclo(F[NMeY]IL[dNMeF]P[Sar])) | 0.21 | 5.2 | 0.301 | 6.47 | 2.63 | 13.1 | 0.287 | 3.95 | 0.446 | 7.73 | 0.467 | 5.75 | 0.217 | 6.94 | 0.267 | 3.05 | 0.279 | 11.7 | 1.22 | 9.65
2 | CC(=O)OC1CCC2(C)C(CCC3C4CC=C(C(C)=O)C4(C)OC(=O)CC32)C1 (stereo unspecified) | 2.88 | 10.3 |  |  | 2.05 | 7.89 | 1.22 | 2.64 | 11.1 | 23.1 | 2.52 | 6.59 | 5.2 | 17.8 | 1.42 | 2.98 | 1.3 | 4.87 | 2.05 | 4.77
3 | O=C(O)CCCCCO |  | > 100 |  | > 100 |  | > 100 |  | > 100 |  | > 100 |  | > 100 |  | > 100 |  | > 100 |  | > 100 |  | > 100
4 | CCOC(=O)c1ccc(Nc2sc(C(=O)c3cccc([N+](=O)[O-])c3)c(N)c2C#N)cc1 | 0.0244 | 26 | 0.469 | > 75.8 | 0.0543 | 20 | 0.0277 | 0.852 | 0.181 | 18.6 | 0.122 | 15.3 | 0.198 | 21 | 0.301 | > 31.6 | 0.067 | 8.34 | 0.192 | 17.3
5 | Cc1ncc(C(=O)Nc2ccc(CN3CCN(C)CC3)c(C(F)(F)F)c2)cc1C#Cc1cnc(N)c2ncccc12 |  |  | 1.27 | 3.62 | 0.0596 | 0.775 | 1.05 | 3.96 | 0.341 | 7.2 | 0.508 | 2.88 | 0.417 | 3 | 0.128 | 2.55 | 0.558 | > 20.6 | 0.318 | 2.13
6 | COc1cc([C@@H]2c3cc4c(cc3[C@@H](NCc3ccccc3)C3COC(=O)[C@@H]32)OCO4)cc(OC)c1O (stereo partly specified) |  | > 92.3 |  | 38.1 |  | 17.6 |  |  |  | > 58.9 |  | 12.5 |  | 61.5 |  | > 90.2 |  | > 27.2 |  | > 61.7
7 | Nc1c(C(=O)c2cccc(C#CCN3CCOCC3)c2)cnn1-c1ccc(F)cc1 | > 17.2 | > 25 |  |  | > 25 | > 25 | > 10.9 | > 23.6 | > 25 | > 25 | > 25 | > 25 | > 25 | > 25 | > 18.6 | > 25 |  |  | > 23.4 | > 25
8 | O=C(NC(=S)NNC(=S)NNc1ccccc1)c1ccccc1 | 4.8 | > 100 |  |  | 4.69 | > 100 | 0.489 | 3.42 | 44.2 | > 100 | 24.8 | > 100 | 8.55 | > 100 | 4.68 | > 100 | 5.33 | > 100 | 35.4 | > 100
9 | COc1ccc2[nH]c(=O)c(/C=C/C(=O)/C=C/c3ccc(O)c(OC)c3)cc2c1 | 1.77 | 4.24 | 1.95 | 4.35 | 1.47 | 2.79 | 1.74 | 3.87 | 2.79 | 9.82 | 1.59 | 3.17 | 2.25 | 7.14 | 1.58 | 3.09 | 2.06 | > 100 | 2.29 | 5.72
10 | Cc1ccc(S(=O)(=O)SCc2ccccc2CSS(=O)(=O)c2ccc(C)cc2)cc1 |  | > 100 |  | > 100 |  | > 100 |  | 22.8 |  | > 100 |  | 34.4 |  | > 100 |  | > 100 |  |  |  | > 100
11 | COc1cccc(-n2ncc3c(N/N=C/c4ccc(S(C)(=O)=O)cc4)ncnc32)c1 | 11 | > 25 | > 22.9 | > 25 | 5.77 | 14.3 | 6.78 | 20.1 | 4.24 | 10.7 | 7.1 | 20.1 | 5.98 | 13.5 | > 18 | > 25 | > 25 | > 25 | 8.4 | > 23.3
12 | Nc1c(C(=O)c2cccc(CCC3(O)CCCC3)c2)cnn1-c1ccc(F)cc1 | > 25 | > 25 |  |  | 8.21 | > 25 | > 19.4 | > 25 | > 25 | > 25 | > 20.4 | > 25 | > 18.5 | > 25 | 10 | > 25 | 18.8 | > 25 | 18.8 | > 25
13 | N#CSCc1c(Cl)cccc1Cl | 2.69 | 7.2 | 3.94 | > 27.4 | 4.41 | 27.6 | 2.07 | 6.33 | 34 | > 100 | 5.57 | > 100 | 4.9 | > 65.5 | 10.9 | > 81.3 | 0.323 | > 43.8 | 4.51 | > 29.2
14 | O=C1[C@@H]2C3SC(c4ccccc43)[C@@H]2C(=O)N1c1ccccc1 |  | > 100 |  | > 100 |  | > 100 |  | > 100 |  | > 100 |  | > 100 |  | > 100 |  | > 100 |  | > 100 |  | > 100
